Eight compounds from patent publication US9969688B2, “Roflumilast prodrugs” (HISAMITSU PHARMACEUTICAL CO., INC., priority 2014, dated 2018) can be followed below.

In general, solubility refers to the concentration that dissolves in the medium under given conditions.

≈ marks a conversion by molar mass, not a printed value.

Data set [1] in a line: Evaluation test of water solubility (saturated solubility). It is filed as physicochemical. Particulars: phosphate buffer (pH 7); for solubility at 30 min: aqueous buffer, thermodynamic from solid, ultrasonicated 30 minutes. On the procedure:
An excessive amount of a test compound was added to 10 mL of phosphate buffer (pH 7) and the resultant was ultrasonicated for 30 minutes. The resulting suspension was filtered and 0.5 mL of acetonitrile was added to 0.5 mL of the filtrate to obtain a test solution. The concentration of the test compound in the test solution was determined by high performance liquid chromatography to calculate the saturated solubility. Roflumilast was used in Comparative Example 1.

A short description of data set [2]: Evaluation test of skin permeability (Franz diffusion cell). Particulars: hairless mouse skin; for Jmax (maximum skin permeation rate) / Cumulative Amount of Permeation for 24 hours: 1 w/w % in dimethyl sulfoxide, 100 μL, 32° C. In kind it is in vitro ADME. On the procedure:
Skin was excised from the back of a hairless mouse and the section of the skin was placed in a Franz diffusion cell (glass cell) so that a solution of each of test compounds (compounds of Examples, Comparative Example, or Reference Examples) was contacted with the epidermal side of the section of the skin (applied area: 1 cm^2). Phosphate buffered physiological saline (PBS) was used as a flow solution. The flow rate was set to 5 mL/hour and the temperature of thermoregulated bath was set to 32° C. Next, dimethyl sulfoxide was added to achieve the concentration of the test compound of 1 w/w % and the resultant was stirred thoroughly to prepare a solution of the test compound. The donor chamber of the Franz diffusion cell was charged with 100 μL of the resulting solution of the test compound. The flow solution was sampled every 2 hours until 24 hours after the charge of the test compound solution. The flow solutions sampled every 2 hours were diluted two-fold by adding acetonitrile and the diluted solution was centrifuged to give supernatants as an HPLC analytical sample. Each of the resulting analytical samples was analyzed by high performance liquid chromatography to calculate the maximum skin permeation rate (Jmax) and the cumulative amount of permeation for 24 hours. Roflumilast was used in Comparative Example 1.

Data set [3] relates to human liver enzyme fraction. The data set is described as follows: In vitro metabolism test (metabolic rate into roflumilast). In kind it is in vitro ADME. Particulars: treated with human liver enzyme fractions. On the procedure: A human liver enzyme fraction was added to 100 mmol/L Tris-HCl buffer containing coenzymes (NADPH-producing) so as to achieve the concentration of 0.5 mg protein/mL and the resultant was pre-incubated at 37° C. for 5 minutes. A test compound was added to this solution so as to achieve the concentration of 0.1 μmol/L and the resultant was incubated at 37° C. for an hour. The reaction was then stopped by adding water-cooled acetonitrile. The resulting solution was filtered and then quantified by using LC-MS/MS to calculate the metabolic rate (%) into roflumilast. It is noted that “with heat treatment” in Table 1 means using a human liver enzyme fraction subjected to heat treatment before adding to thereby inactivate a metabolic enzyme therein.
Numerical values in Table 1 represent metabolic rates (%) into rofiumilast. […] Roflumilast was not produced when metabolic enzymes were inactivated by heat treatments prior to using the human liver enzyme fractions.

As for `O=C(Nc1c(Cl)cncc1Cl)c1ccc(OC(F)F)c(OCC2CC2)c1` [Comparative Example 1, N-(3,5-dichloropyrid-4-yl)-3-cyclopropylmethoxy-4-difluoromethoxybenzamide, reference compound], in data set [1], the solubility at 30 min was determined as 0.373 µg/mL (≈ 0.925 µM) and the “Ratio to Roflumilast (saturated solubility)” value (from here on “Ratio to Roflumilast”) is recorded as 1. In data set [2], the “Jmax (maximum skin permeation rate)” value worked out at 0.0 μg/cm^2/hr and the “Cumulative Amount of Permeation for 24 hours” value (shortened to “Cumulative Amount”) is reported as 0.0 μg/cm^2. Further, the “skin permeability (in words)” value in data set [2] (up to 24 hours) was “no skin permeability even after 24 hours”.
Consider `N#CCN(C(=O)c1ccc(OC(F)F)c(OCC2CC2)c1)c1c(Cl)cncc1Cl` [Example 1, N-cyanomethyl-N-(3,5-dichloropyrid-4-yl)-3-cyclopropylmethoxy-4-difluoromethoxybenzamide], for which, in data set [1], the solubility at 30 min came out at 1.64 µg/mL (≈ 3.72 µM) and the “Ratio to Roflumilast” value was 4.4. In data set [2], the “Jmax (maximum skin permeation rate)” value turned out to be 1.2 μg/cm^2/hr and the “Cumulative Amount” value was determined as 12.1 μg/cm^2.
In the case of `O=C(c1ccc(OC(F)F)c(OCC2CC2)c1)N(CCO)c1c(Cl)cncc1Cl` [Example 2, N-(3,5-dichloropyrid-4-yl)-N-(2-hydroxyethyl)-3-cyclopropylmethoxy-4-difluoromethoxybenzamide], in data set [1], the solubility at 30 min was 12.5 µg/mL (≈ 27.9 µM) and the “Ratio to Roflumilast” value turned out to be 33.4. In addition, in data set [2], the “Jmax (maximum skin permeation rate)” value came to 10.7 μg/cm^2/hr and the “Cumulative Amount” value is on record as 157.7 μg/cm^2.
The matching figures for `CN(C(=O)c1ccc(OC(F)F)c(OCC2CC2)c1)c1c(Cl)cncc1Cl` [Example 3, N-(3,5-dichloropyrid-4-yl)-N-methyl-3-cyclopropylmethoxy-4-difluoromethoxybenzamide]: 9.7 µg/mL (≈ 23.2 µM), 26.0, 3.2 μg/cm^2/hr and 51.0 μg/cm^2.
Regarding `O=C(c1ccc(OC(F)F)c(OCC2CC2)c1)N(CCCO)c1c(Cl)cncc1Cl` [Example 5, N-(3,5-dichloropyrid-4-yl)-N-(3-hydroxypropan-1-yl)-3-cyclopropylmethoxy-4-difluoromethoxybenzamide], in data set [2], the “Jmax (maximum skin permeation rate)” value is given as 8.5 μg/cm^2/hr and the “Cumulative Amount” value is 163.5 μg/cm^2.
The matching figures for `COCN(C(=O)c1ccc(OC(F)F)c(OCC2CC2)c1)c1c(Cl)cncc1Cl` [Example 6, N-(3,5-dichloropyrid-4-yl)-N-methoxymethyl-3-cyclopropylmethoxy-4-difluoromethoxybenzamide]: 1.2 μg/cm^2/hr and 17.6 μg/cm^2.
As to `NC(=O)CN(C(=O)c1ccc(OC(F)F)c(OCC2CC2)c1)c1c(Cl)cncc1Cl` [Reference Example 1, N-carbamoylmethyl-N-(3,5-dichloropyrid-4-yl)-3-cyclopropylmethoxy-4-difluoromethoxybenzamide, reference compound], in data set [3], the “production of roflumilast by human liver enzyme fractions (in words)” value is on record as “did not produce roflumilast”. In addition, in data set [1], the solubility at 30 min turned out to be 16.6 µg/mL (≈ 36 µM) and the “Ratio to Roflumilast” value turned out to be 44.5. In data set [2], the “Jmax (maximum skin permeation rate)” value came to 0.9 μg/cm^2/hr and the “Cumulative Amount” value worked out at 7.2 μg/cm^2.
As for `O=C(O)CN(C(=O)c1ccc(OC(F)F)c(OCC2CC2)c1)c1c(Cl)cncc1Cl` [Reference Example 2, N-carboxymethyl-N-(3,5-dichloropyrid-4-yl)-3-cyclopropylmethoxy-4-difluoromethoxybenzamide, reference compound], the “production of roflumilast by human liver enzyme fractions (in words)” value in data set [3] is given as “did not produce roflumilast”. Moreover, in data set [1], the solubility at 30 min was 612 µg/mL (≈ 1330 µM) and the “Ratio to Roflumilast” value turned out to be 1640.2. For the same compound, in data set [2], the “Jmax (maximum skin permeation rate)” value turned out to be 9.5 μg/cm^2/hr and the “Cumulative Amount” value stood at 56.9 μg/cm^2.
